PubChem BioAssay AID540261 (Sanford-Burnham Center for Chemical Genomics, 2011)
The source made the active and inactive calls.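 Rule for the calls: active = compounds whose average half-maximal inhibitory concentration on the enzyme falls below 100 micromolar; inactive = the rest.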

biological target: Alkaline phosphatase, tissue-nonspecific isozyme (Homo sapiens) (UniProt P05186); experiment: inhibition of tissue-nonspecific alkaline phosphatase – biochemical, set 2, CDP-Star luminescence, selectivity assay for human IAP inhibitor project, SAR follow-up (AID 540261); conditions: purified human TNAP, 30 min
Sequence (P05186 whole entry, looked up): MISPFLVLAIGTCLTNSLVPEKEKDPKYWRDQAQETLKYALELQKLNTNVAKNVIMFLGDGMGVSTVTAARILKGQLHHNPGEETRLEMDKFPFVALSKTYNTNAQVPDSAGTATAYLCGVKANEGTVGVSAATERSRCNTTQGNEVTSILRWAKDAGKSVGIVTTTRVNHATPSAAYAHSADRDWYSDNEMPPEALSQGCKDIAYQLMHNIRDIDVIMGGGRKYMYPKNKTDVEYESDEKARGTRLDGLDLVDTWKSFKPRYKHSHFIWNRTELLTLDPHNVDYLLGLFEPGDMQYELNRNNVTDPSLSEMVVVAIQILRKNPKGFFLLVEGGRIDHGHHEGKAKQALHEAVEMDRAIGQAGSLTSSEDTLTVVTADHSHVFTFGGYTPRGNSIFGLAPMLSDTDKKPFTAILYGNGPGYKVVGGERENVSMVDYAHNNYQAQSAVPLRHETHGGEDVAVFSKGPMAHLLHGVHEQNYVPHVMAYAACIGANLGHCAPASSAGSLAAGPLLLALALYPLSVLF

| Structure (SMILES) | IC50 |
| --- | --- |
| Cc1ccc(C)c(NC(=O)CCNS(=O)(=O)c2ccc3[nH]c(=O)oc3c2)c1 | > 100 µM (inactive) |
| O=C(CNS(=O)(=O)c1ccc2[nH]c(=O)oc2c1)Nc1ccc2c(c1)OCO2 | > 100 µM (inactive) |
| N#Cc1ccc(CNC(=O)CCNS(=O)(=O)c2ccc3[nH]c(=O)oc3c2)cc1 | > 100 µM (inactive) |
| O=C(CNS(=O)(=O)c1ccc2[nH]c(=O)oc2c1)NCc1ccc2c(c1)OCO2 | > 100 µM (inactive) |
| COc1ccc(NC(=O)CNS(=O)(=O)c2ccc3[nH]c(=O)oc3c2)cc1OC | > 100 µM (inactive) |
